# Source: US6607710B1, “Bisphosphonic acid derivative and compound thereof labeled with radioactive nuclide” (Nihon Medi-Physics Co., Ltd., priority 1999, dated 2003)
# Several values for one entry are separate records, joined by “and”; a condition that tells them apart may be missing. Equal values may be shown once.
# Assay: Determination of biodistribution of radiolabeled compounds in rats after caudal vein administration
# Type: in vivo, SD strain rats
# Conditions: for Biodistribution, Blood / Biodistribution, Femur and Tibia / Biodistribution, Kidney / Biodistribution, Liver / Biodistribution, Urine: SD-rats female, n = 3, caudal vein
# Procedure: SD strain rats (female, age in 8-9 weeks, n=3) were used with free access to water and food ad libitum, and anesthetized with Ravonal, (a trade name of thiopental sodium, manufactured by Tanabe Seiyaku Co., Ltd.), then the test sample solution was administered to the caudal vein. The test rats were killed by bleeding during the blood samples were taken from the abdominal aorta at each times of sampling after the administration. The organs of interest were excised. After measured the weights of these samples, the radioactivities were determined, and biodistributions were calculated. The results of determination of biodistribution relating to the labeled compounds obtained in Examples 1, 2 and 4 and the labeled compounds of methanediphosphonic acid (MDP) used as reference examples are shown in Tables 3 to 7. Determination results are indicated as %ID/g, and determination results of urine are indicated as %ID.
# [1] = 15 Minutes after administration
# [2] = 120 Minutes after administration
Compound,"Biodistribution, Blood [1]","Biodistribution, Femur and Tibia [1]","Biodistribution, Kidney [1] [% ID/g]","Biodistribution, Liver [1] [% ID/g]","Biodistribution, Urine [1]","Biodistribution, Blood [2] [% ID/g]","Biodistribution, Femur and Tibia [2]","Biodistribution, Kidney [2] [% ID/g]","Biodistribution, Liver [2] [% ID/g]","Biodistribution, Urine [2]","change of accumulation level to the bone (in words) (SD-rats, from 15 minutes to 120 minutes after the administration)","accumulation to the bone (in words) (SD-rats, summary of Tables 3-8)","blood clearance (in words) (SD-rats, summary of Tables 3-8)","urinary excretion (in words) (SD-rats, summary of Tables 3-8)"
O=C(NCC(P(=O)(O)O)P(=O)(O)O)c1ccccc1I,0.717 ± 0.159 % ID/g,3.423 ± 0.302 % ID/g,2.751 ± 0.951,0.495 ± 0.078,19.55 ± 0.72 % ID,0.042 ± 0.006,3.714 ± 0.474 % ID/g,1.070 ± 0.539,0.380 ± 0.037,41.54 ± 4.19 % ID,did not significantly vary,accumulated to the bone quickly,relatively rapid,rapidly excreted into urine
"O=C(O)CNC(=O)CC(P(=O)(O)O)P(=O)(O)O (99mTc complex, metal not drawn) [N-(3,3-diphosphonopropionyl)glycine]",0.599 ± 0.103 % ID/g,3.014 ± 0.377 % ID/g,3.225 ± 0.543,0.159 ± 0.009,29.69 ± 0.14 % ID,0.089 ± 0.037,3.552 ± 0.327 % ID/g,0.762 ± 0.279,0.068 ± 0.003,48.15 ± 1.50 % ID,–,–,–,–
"O=C(O)CN(CCN(CC(=O)O)CC(=O)O)CCN(CC(=O)O)CC(=O)NCC(P(=O)(O)O)P(=O)(O)O [3,6-bis(carboxymethyl)-9-(((2,2-diphosphonoethyl)carbamoyl)m] [3,6-bis(carboxymethyl)-9-(((2,2-diphosphonoethyl)carbamoyl)methyl)-3,6,9-triazaundecanedicarboxylic acid]",0.519 ± 0.025 % ID/g and 0.621 ± 0.239 % ID/g and 0.463 ± 0.056 % ID/g,2.777 ± 0.311 % ID/g and 2.417 ± 0.495 % ID/g and 2.643 ± 0.182 % ID/g,–,–,26.04 ± 9.29 % ID and 28.64 ± 5.55 % ID and 37.996 ± 5.927 % ID,–,2.739 ± 0.385 % ID/g and 3.089 ± 0.340 % ID/g and 2.922 ± 0.187 % ID/g,–,–,40.31 ± 9.02 % ID and 54.91 ± 1.96 % ID and 54.927 ± 4.073 % ID,–,–,–,–
